# Reference: patent publication US6737383B1, “Herbicidal oxadiazolidines” (priority 1999, dated 2004)
# Key:
# surinam grass = experiment: Test B pre/postemergence surinam grass; type: in vivo, Brachiaria decumbens
# In short: (§1)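 Herbicidal effect was estimated by eye on a ten-point control scale after plants spent twelve to sixteen days in a greenhouse following soil or foliar treatment. Foliar sprays targeted plants at one to four leaves; all doses were formulated in a non-phytotoxic solvent with surfactant.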
# velvetleaf = experiment: Test B pre/postemergence velvetleaf; type: in vivo, Abutilon theophrasti
# In short: as §1
# morningglory = experiment: Test B pre/postemergence morningglory; type: in vivo, Ipomoea hederacea
# In short: as §1
# corn = experiment: Test B pre/postemergence corn; type: in vivo, Zea mays
# In short: as §1
# wild oat = experiment: Test B pre/postemergence wild oat; type: in vivo, Avena fatua
# In short: as §1
# wheat = experiment: Test B pre/postemergence wheat; type: in vivo, Triticum aestivum
# In short: as §1
# sugar beet = experiment: Test B pre/postemergence sugar beet; type: in vivo, Beta vulgaris
# In short: as §1
# blackgrass = experiment: Test B pre/postemergence blackgrass; type: in vivo, Alopecurus myosuroides
# In short: as §1
# pigweed = experiment: Test B pre/postemergence pigweed; type: in vivo, Amaranthus retroflexus
# In short: as §1
# purple nutsedge = experiment: Test B pre/postemergence purple nutsedge; type: in vivo, Cyperus rotundus
# In short: as §1
# cocklebur = experiment: Test B pre/postemergence cocklebur; type: in vivo, Xanthium strumarium
# In short: as §1
# soybean = experiment: Test B pre/postemergence soybean; type: in vivo, Glycine max
# In short: as §1
# giant foxtail = experiment: Test B pre/postemergence giant foxtail; type: in vivo, Setaria faberii
# In short: as §1
# rape = experiment: Test B pre/postemergence rape; type: in vivo, Brassica napus
# In short: as §1
# bedstraw = experiment: Test B pre/postemergence bedstraw; type: in vivo, Galium aparine
# In short: as §1
# crabgrass = experiment: Test B pre/postemergence crabgrass; type: in vivo, Digitaria sanguinalis
# In short: as §1
# [1] = Postemergence, Rate 31 g/ha, visual rating, scale 0 to 10 (0 no effect, 10 complete control)
# [2] = Postemergence, Rate 62 g/ha, scale of 0 to 10, 0 is no effect, 10 is complete control
# [3] = Postemergence, Rate 125 g/ha, scale 0 to 10, 0 is no effect, 10 is complete control
# [4] = Preemergence, Rate 31 g/ha, visual rating, scale 0 to 10 (0 no effect, 10 complete control)
# [5] = Preemergence, Rate 62 g/ha, scale 0 to 10 (0 no effect, 10 complete control)
# [6] = Preemergence, Rate 125 g/ha, scale 0 to 10, 0 is no effect, 10 is complete control
# [7] = Rate 250 g/ha, Postemergence, scale of 0 to 10 where 0 is no effect and 10 is complete control
structure (smiles),measurement,setting,value
CC(C)N(C(=O)n1oc(=O)n(C[Si](C)(C)C)c1=O)c1ccc(Cl)cc1 [Compound 548],B. signalgrass plant response rating,surinam grass; [1],0
same,B. signalgrass plant response rating,surinam grass; [2],0
same,B. signalgrass plant response rating,surinam grass; [3],0
same,B. signalgrass plant response rating,surinam grass; [4],0
same,B. signalgrass plant response rating,surinam grass; [5],0
same,B. signalgrass plant response rating,surinam grass; [6],2
same,"B. signalgrass plant response rating (0 to 10 scale, 0 is no effect, 10 is complete control)","surinam grass; Preemergence, Rate 250 g/ha",3
same,"Plant response rating, B. signalgrass",surinam grass; [7],0
same,Velvetleaf plant response rating,velvetleaf; [1],0
same,Velvetleaf plant response rating,velvetleaf; [2],0
same,Velvetleaf plant response rating,velvetleaf; [3],0
same,Velvetleaf plant response rating,velvetleaf; [5],0
same,Velvetleaf plant response rating,velvetleaf; [6],0
same,Velvetleaf plant response rating (0 to 10 scale),"velvetleaf; Preemergence, Rate 250 g/ha",0
same,"Plant response rating, Velvetleaf",velvetleaf; [7],0
same,Morningglory plant response rating,morningglory; [1],1
same,Morningglory plant response rating,morningglory; [2],5
same,Morningglory plant response rating,morningglory; [5],0
same,Morningglory plant response rating,morningglory; [6],0
same,Morningglory plant response rating (0 to 10 scale),"morningglory; Preemergence, Rate 250 g/ha",0
same,"Plant response rating, Morningglory",morningglory; [7],8
same,Corn plant response rating,corn; [1],0
same,Corn plant response rating,corn; [2],0
same,Corn plant response rating,corn; [3],0
same,Corn plant response rating,corn; [4],0
same,Corn plant response rating,corn; [5],0
same,Corn plant response rating,corn; [6],0
same,Corn plant response rating (0 to 10 scale),"corn; Preemergence, Rate 250 g/ha",0
same,"Plant response rating, Corn",corn; [7],0
same,Wild oats plant response rating,wild oat; [1],0
same,Wild oats plant response rating,wild oat; [2],0
same,Wild oats plant response rating,wild oat; [3],0
same,Wild oats plant response rating,wild oat; [5],0
same,Wild oats plant response rating,wild oat; [6],0
same,Wild oats plant response rating (0 to 10 scale),"wild oat; Preemergence, Rate 250 g/ha",2
same,"Plant response rating, Wild oats",wild oat; [7],0
same,Wheat plant response rating,wheat; [1],0
same,Wheat plant response rating,wheat; [2],0
same,Wheat plant response rating,wheat; [3],0
same,Wheat plant response rating,wheat; [5],0
same,Wheat plant response rating,wheat; [6],0
same,Wheat plant response rating (0 to 10 scale),"wheat; Preemergence, Rate 250 g/ha",0
same,"Plant response rating, Wheat",wheat; [7],2
same,Sugarbeets plant response rating,sugar beet; [1],0
same,Sugarbeets plant response rating,sugar beet; [2],0
same,Sugarbeets plant response rating,sugar beet; [3],0
same,Sugarbeets plant response rating,sugar beet; [5],0
same,Sugarbeets plant response rating,sugar beet; [6],0
same,Sugarbeets plant response rating (0 to 10 scale),"sugar beet; Preemergence, Rate 250 g/ha",2
same,"Plant response rating, Sugarbeets",sugar beet; [7],3
same,Blackgrass plant response rating,blackgrass; [1],0
same,Blackgrass plant response rating,blackgrass; [2],0
same,Blackgrass plant response rating,blackgrass; [3],0
same,Blackgrass plant response rating,blackgrass; [4],0
same,Blackgrass plant response rating,blackgrass; [5],0
same,Blackgrass plant response rating,blackgrass; [6],3
same,Blackgrass plant response rating (0 to 10 scale),"blackgrass; Preemergence, Rate 250 g/ha",3
same,"Plant response rating, Blackgrass",blackgrass; [7],3
same,Redroot pigweed plant response rating,pigweed; [1],0
same,Redroot pigweed plant response rating,pigweed; [2],0
same,Redroot pigweed plant response rating,pigweed; [3],0
same,Redroot pigweed plant response rating,pigweed; [5],0
same,Redroot pigweed plant response rating,pigweed; [6],0
same,Redroot pigweed plant response rating (0 to 10 scale),"pigweed; Preemergence, Rate 250 g/ha",2
same,"Plant response rating, Redroot pigweed",pigweed; [7],2
same,Nutsedge plant response rating,purple nutsedge; [1],0
same,Nutsedge plant response rating,purple nutsedge; [3],0
same,Nutsedge plant response rating,purple nutsedge; [5],0
same,Nutsedge plant response rating,purple nutsedge; [6],0
same,Nutsedge plant response rating (0 to 10 scale),"purple nutsedge; Preemergence, Rate 250 g/ha",0
same,"Plant response rating, Nutsedge",purple nutsedge; [7],0
same,Cocklebur plant response rating,cocklebur; [1],0
same,Cocklebur plant response rating,cocklebur; [2],0
same,Cocklebur plant response rating,cocklebur; [3],0
same,Cocklebur plant response rating,cocklebur; [4],0
same,Cocklebur plant response rating,cocklebur; [5],0
same,Cocklebur plant response rating,cocklebur; [6],0
same,Cocklebur plant response rating (0 to 10 scale),"cocklebur; Preemergence, Rate 250 g/ha",0
same,"Plant response rating, Cocklebur",cocklebur; [7],0
same,Soybean plant response rating,soybean; [1],1
same,Soybean plant response rating,soybean; [2],2
same,Soybean plant response rating,soybean; [3],2
same,Soybean plant response rating,soybean; [5],0
same,Soybean plant response rating,soybean; [6],0
same,Soybean plant response rating (0 to 10 scale),"soybean; Preemergence, Rate 250 g/ha",0
same,"Plant response rating, Soybean",soybean; [7],2
same,Giant foxtail plant response rating,giant foxtail; [1],0
same,Giant foxtail plant response rating,giant foxtail; [2],0
same,Giant foxtail plant response rating,giant foxtail; [3],0
same,Giant foxtail plant response rating,giant foxtail; [4],9
same,Giant foxtail plant response rating,giant foxtail; [5],9
same,Giant foxtail plant response rating,giant foxtail; [6],9
same,Giant foxtail plant response rating (0 to 10 scale),"giant foxtail; Preemergence, Rate 250 g/ha",10
same,"Plant response rating, Giant foxtail",giant foxtail; [7],0
same,Rape plant response rating,rape; [1],0
same,Rape plant response rating,rape; [3],0
same,Rape plant response rating,rape; [5],0
same,Rape plant response rating,rape; [6],0
same,Rape plant response rating (0 to 10 scale),"rape; Preemergence, Rate 250 g/ha",2
same,"Plant response rating, Rape",rape; [7],7
same,Bedstraw plant response rating,bedstraw; [1],0
same,Bedstraw plant response rating,bedstraw; [2],0
same,Bedstraw plant response rating,bedstraw; [3],4
same,Bedstraw plant response rating,bedstraw; [4],9
same,Bedstraw plant response rating,bedstraw; [5],8
same,Bedstraw plant response rating,bedstraw; [6],10
same,Bedstraw plant response rating (0 to 10 scale),"bedstraw; Preemergence, Rate 250 g/ha",10
same,"Plant response rating, Bedstraw",bedstraw; [7],9
same,Crabgrass plant response rating,crabgrass; [1],0
same,Crabgrass plant response rating,crabgrass; [3],5
same,Crabgrass plant response rating,crabgrass; [4],4
same,Crabgrass plant response rating,crabgrass; [5],9
same,Crabgrass plant response rating,crabgrass; [6],9
same,Crabgrass plant response rating (0 to 10 scale),"crabgrass; Preemergence, Rate 250 g/ha",10
